Our source for the IC50 values is patent US20240150300A1, “S-CONFIGURATION-CONTAINING AMINO BENZAMIDE PYRIDAZINONE COMPOUND, PREPARATION METHOD THEREFOR, AND PHARMACEUTICAL COMPOSITION AND APPLICATION THEREOF” (SHANGHAI INSTITUTE OF MATERIA MEDICA, CHINESE ACADEMY OF …, priority 2021, published 2024).

Each structure is given as a SMILES string.

In one assay the test system is HCT-116 cells. Kind of assay: Antiproliferative activity, CCK-8, HCT-116. The format is cell-based, human. As for the experimental part:
(§1) The tumor cells used were purchased from commercial cell banks (HCT116 purchased from ATCC, SKM 1 purchased from JCRB). The growth inhibition of cells was detected using the CCK-8 method. The specific steps were as follows. Cells in the logarithmic growth phase were seeded into a 96 well culture plate at an appropriate density, with 90 μL/well. After overnight cultivation, different concentrations of drugs were added for treatment for 72 h, with each concentration in triplicate, and corresponding concentration of vehicle control and cell-free blank wells were also set. After the treatment, 10 μL of CCK-8 was added to each well and the plate was incubated in an incubator for 2-4 hours, and the optical density (OD value) at a wavelength of 450 nm was measured using a SpectraMax 190 microplate reader. […] The experiment was repeated twice, and the mean value and SD were calculated.

Another assay has as its target HDAC1 (Homo sapiens (Human), UniProt Q13547). Kind of assay: In vitro histone deacetylase activity assay (HTRF), HDAC1. Format: biochemical. The settings on record: H3(1-21) K9Ac biotin substrate. As for the experimental part:
(§2) Human recombinant HDAC family proteins with His and GST tags were expressed using insect baculovirus expression system, and a biologically active HDAC family recombinant protein was obtained through Ni affinity column protein purification. HTRF detection method was used with H3(1-21) K9Ac biotin as the substrate. […] Briefly, 20 μl of the activity testing system included the HDAC substrate (0.2 μM. 4 μl), the Human Recombinant Protein HDAC (2-5 ng)/μl.
(Time-resolved FRET reads energy transfer from a long-lived donor to a nearby acceptor.)

Another assay deals with HDAC6 (Homo sapiens (Human), UniProt Q9UBN7). Kind of assay: In vitro histone deacetylase activity assay (HTRF), HDAC6. The format is biochemical. The settings on record: H3(1-21) K9Ac biotin substrate. As for the experimental part:
as §2

In the next assay the target is HDAC3 (Homo sapiens (Human), UniProt O15379). Description: HDAC subtype inhibitory activity (HTRF), HDAC3. The format is biochemical. How it is done:
as §2

A further assay addresses HDAC10 (Homo sapiens (Human), UniProt Q969S8). Description: HDAC subtype inhibitory activity (HTRF), HDAC10. The format is biochemical. How it is done:
as §2

The target in the next assay is HDAC2 (Homo sapiens (Human), UniProt Q92769). Kind of assay: HDAC subtype inhibitory activity (HTRF), HDAC2. Format: biochemical. As for the experimental part: as §2
The next assay concerns SKM-1 cells. Kind of assay: Antiproliferative activity, CCK-8, SKM-1. Format: cell-based, human. As for the experimental part: as §1
With reference to HCT-116 cell proliferation inhibition test method, the inhibitory activity of the compounds on the proliferation of human myelodysplastic syndrome cell SKM-1 was tested.

A further assay has as its target HDAC8 (Homo sapiens (Human), UniProt Q9BY41). Kind of assay: HDAC subtype inhibitory activity (HTRF), HDAC8. Format: biochemical. As for the experimental part:
as §2

Chain of HDAC6 (Q9UBN7 whole entry): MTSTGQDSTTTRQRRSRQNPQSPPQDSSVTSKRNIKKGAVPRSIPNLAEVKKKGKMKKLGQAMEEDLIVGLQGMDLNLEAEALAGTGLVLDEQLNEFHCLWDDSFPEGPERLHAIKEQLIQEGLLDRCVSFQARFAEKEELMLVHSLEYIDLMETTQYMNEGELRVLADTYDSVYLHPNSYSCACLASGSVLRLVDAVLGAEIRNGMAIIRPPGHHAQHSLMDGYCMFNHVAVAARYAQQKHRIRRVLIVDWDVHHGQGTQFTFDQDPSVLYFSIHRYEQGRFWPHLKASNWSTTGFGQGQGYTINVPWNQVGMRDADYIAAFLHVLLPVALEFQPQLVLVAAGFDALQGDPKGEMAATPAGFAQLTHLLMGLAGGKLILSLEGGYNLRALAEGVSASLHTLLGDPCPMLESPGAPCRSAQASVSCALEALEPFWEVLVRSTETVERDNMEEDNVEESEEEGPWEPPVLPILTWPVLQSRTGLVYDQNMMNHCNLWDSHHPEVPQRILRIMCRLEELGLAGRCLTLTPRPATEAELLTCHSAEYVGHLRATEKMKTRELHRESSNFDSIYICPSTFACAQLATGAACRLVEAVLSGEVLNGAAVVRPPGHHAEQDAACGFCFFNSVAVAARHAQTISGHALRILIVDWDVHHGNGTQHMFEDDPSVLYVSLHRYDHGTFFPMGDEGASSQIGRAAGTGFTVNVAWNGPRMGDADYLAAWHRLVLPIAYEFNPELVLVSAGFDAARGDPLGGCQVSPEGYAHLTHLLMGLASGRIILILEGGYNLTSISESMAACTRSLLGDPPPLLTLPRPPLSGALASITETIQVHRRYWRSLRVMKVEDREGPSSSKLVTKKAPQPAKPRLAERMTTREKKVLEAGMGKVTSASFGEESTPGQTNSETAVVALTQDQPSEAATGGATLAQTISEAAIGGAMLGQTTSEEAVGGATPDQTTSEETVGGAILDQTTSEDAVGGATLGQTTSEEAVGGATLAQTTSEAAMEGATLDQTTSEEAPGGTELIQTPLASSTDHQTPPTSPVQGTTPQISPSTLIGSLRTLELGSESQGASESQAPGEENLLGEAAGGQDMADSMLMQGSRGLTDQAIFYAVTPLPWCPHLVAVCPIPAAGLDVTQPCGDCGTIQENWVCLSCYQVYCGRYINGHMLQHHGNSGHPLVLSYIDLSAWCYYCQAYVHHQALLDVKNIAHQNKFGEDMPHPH
Chain of HDAC1 (Q13547 whole entry): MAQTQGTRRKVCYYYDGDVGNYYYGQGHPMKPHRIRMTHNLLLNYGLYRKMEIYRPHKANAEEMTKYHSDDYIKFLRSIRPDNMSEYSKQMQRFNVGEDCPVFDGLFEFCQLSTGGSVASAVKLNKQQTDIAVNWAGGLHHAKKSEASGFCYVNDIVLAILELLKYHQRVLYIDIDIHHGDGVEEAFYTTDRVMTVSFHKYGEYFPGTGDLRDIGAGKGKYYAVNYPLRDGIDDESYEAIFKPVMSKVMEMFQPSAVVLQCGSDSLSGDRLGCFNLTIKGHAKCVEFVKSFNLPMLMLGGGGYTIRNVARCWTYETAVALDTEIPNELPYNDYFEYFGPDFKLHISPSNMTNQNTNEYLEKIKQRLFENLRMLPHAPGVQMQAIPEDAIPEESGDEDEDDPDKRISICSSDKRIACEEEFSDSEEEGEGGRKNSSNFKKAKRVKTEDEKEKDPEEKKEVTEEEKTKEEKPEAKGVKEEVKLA
Chain of HDAC3 (O15379 whole entry): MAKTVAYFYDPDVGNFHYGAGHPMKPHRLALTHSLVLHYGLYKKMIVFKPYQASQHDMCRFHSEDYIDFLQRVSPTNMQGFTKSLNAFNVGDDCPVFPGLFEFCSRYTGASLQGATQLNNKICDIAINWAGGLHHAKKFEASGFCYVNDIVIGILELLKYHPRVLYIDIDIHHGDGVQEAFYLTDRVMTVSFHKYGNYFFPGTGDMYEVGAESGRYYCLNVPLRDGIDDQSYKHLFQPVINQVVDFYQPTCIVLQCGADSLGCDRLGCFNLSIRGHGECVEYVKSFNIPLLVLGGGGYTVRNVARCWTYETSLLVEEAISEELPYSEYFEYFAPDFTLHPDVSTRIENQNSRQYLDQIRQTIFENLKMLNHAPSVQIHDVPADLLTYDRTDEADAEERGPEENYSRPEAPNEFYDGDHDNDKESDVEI
Chain of HDAC3 (Q9Y618 395-489 partner): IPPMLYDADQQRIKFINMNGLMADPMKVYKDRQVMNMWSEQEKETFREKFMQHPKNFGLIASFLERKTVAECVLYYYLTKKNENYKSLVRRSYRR
Chain of HDAC8 (Q9BY41 whole entry): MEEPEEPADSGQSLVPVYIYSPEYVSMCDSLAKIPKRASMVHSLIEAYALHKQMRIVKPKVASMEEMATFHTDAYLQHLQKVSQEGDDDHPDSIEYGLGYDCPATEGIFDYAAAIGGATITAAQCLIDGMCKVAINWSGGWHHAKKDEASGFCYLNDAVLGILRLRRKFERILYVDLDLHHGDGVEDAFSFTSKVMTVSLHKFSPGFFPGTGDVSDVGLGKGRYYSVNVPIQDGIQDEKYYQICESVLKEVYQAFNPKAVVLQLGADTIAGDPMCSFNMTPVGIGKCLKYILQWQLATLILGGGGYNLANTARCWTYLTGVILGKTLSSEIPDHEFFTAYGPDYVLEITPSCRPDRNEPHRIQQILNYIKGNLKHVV
Chain of HDAC10 (Q969S8 whole entry): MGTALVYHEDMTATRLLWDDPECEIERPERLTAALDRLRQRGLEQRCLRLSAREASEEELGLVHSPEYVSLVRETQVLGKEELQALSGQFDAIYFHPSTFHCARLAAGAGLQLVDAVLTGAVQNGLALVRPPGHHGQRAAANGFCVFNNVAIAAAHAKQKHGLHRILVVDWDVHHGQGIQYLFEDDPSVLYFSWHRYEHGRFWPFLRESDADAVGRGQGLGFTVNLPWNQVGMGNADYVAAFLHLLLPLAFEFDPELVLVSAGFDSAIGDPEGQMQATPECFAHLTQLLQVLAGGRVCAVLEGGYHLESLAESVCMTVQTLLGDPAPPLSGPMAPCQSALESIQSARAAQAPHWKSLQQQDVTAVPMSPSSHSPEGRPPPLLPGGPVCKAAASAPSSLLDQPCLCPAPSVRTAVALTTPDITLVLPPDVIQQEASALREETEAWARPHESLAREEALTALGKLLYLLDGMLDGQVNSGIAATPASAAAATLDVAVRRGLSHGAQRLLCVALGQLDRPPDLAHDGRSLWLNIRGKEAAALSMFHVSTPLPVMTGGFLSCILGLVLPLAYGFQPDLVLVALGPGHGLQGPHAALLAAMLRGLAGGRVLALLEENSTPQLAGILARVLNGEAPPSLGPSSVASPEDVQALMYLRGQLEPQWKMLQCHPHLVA
Chain of HDAC2 (Q92769 whole entry): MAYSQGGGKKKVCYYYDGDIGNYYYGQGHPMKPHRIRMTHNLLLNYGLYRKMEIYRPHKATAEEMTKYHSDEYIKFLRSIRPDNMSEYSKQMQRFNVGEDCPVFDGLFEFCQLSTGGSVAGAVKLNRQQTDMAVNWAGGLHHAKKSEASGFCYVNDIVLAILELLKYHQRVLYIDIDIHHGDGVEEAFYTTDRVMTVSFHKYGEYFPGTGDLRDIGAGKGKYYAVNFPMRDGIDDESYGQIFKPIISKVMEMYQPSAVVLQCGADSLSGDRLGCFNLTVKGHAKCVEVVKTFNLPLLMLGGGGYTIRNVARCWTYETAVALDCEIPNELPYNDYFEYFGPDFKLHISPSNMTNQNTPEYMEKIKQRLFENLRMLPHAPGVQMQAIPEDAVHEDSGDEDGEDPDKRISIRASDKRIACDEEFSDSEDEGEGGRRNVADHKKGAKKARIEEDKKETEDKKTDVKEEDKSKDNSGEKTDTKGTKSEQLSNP

Turning to `C[C@@H](c1ccc(C(=O)Nc2ccccc2N)cc1)n1nc(-c2ccccc2)ccc1=O` [Compound I-10], the IC50 in the assay with HCT-116 cells (Homo sapiens, HCT-116, 72 h) was 400 ± 72 nM; on HDAC1, 50.5 ± 13.7 nM; against HDAC6, over 10 µM.
In the case of `C[C@@H](c1ccc(C(=O)Nc2ccccc2N)cc1)n1nc(-c2ccc(CN(C)C)cc2)ccc1=O` [Compound I-2], the IC50 against HDAC3 is 390 ± 28 nM; at HDAC10 it was over 100 µM; in the assay with HCT-116 cells (Homo sapiens, HCT-116, 72 h), 80 ± 2 nM; against HDAC1 it was 23.3 ± 1.1 nM; against HDAC2, 90 ± 2 nM; against HDAC6, over 10 µM. Besides, the IC50 with SKM-1 cells (Homo sapiens, SKM-1, 72 h) was 60 ± 1 nM; at HDAC8 it was over 100 µM.
Turning to `C[C@@H](c1ccc(C(=O)Nc2ccccc2N)cc1)n1nc(-c2cnn(C)c2)ccc1=O` [Compound I-5], the half-inhibitory concentration (IC50) in the assay with HCT-116 cells (Homo sapiens, HCT-116, 72 h) was 280 ± 8 nM; against HDAC1 it was 124 ± 24.4 nM; against HDAC6 it was over 10 µM; with SKM-1 cells (Homo sapiens, SKM-1, 72 h), 200 ± 1 nM.
`C[C@@H](c1ccc(C(=O)Nc2ccccc2N)cc1)n1nc(-c2ccncc2)ccc1=O` [Compound I-6]: the IC50 was 330 ± 4 nM with HCT-116 cells (Homo sapiens, HCT-116, 72 h); 60.5 ± 5.73 nM against HDAC1; over 10 µM against HDAC6; 240 ± 11 nM in the assay on SKM-1 cells (Homo sapiens, SKM-1, 72 h).
As for `COc1ccc(N)c(NC(=O)c2ccc([C@H](C)n3nc(-c4ccc(CN(C)C)cc4)ccc3=O)cc2)c1` [Compound I-11], the IC50 in the assay with HCT-116 cells (72 h) is 310 ± 37 nM; at HDAC1, 42.4 ± 0.8 nM; against HDAC6, over 10 µM; in the assay on SKM-1 cells (72 h), 270 ± 19 nM.
Turning to `Nc1cc(F)ccc1NC(=O)c1ccc(CNC(=O)/C=C/c2cccnc2)cc1` [Chidamide, reference compound], the IC50 in the assay on HCT-116 cells (Homo sapiens, HCT-116, 72 h) is 1700 ± 105 nM; in the assay with SKM-1 cells (Homo sapiens, SKM-1, 72 h), 550 ± 4 nM.
With `CC(c1ccc(C(=O)Nc2ccccc2N)cc1)n1nc(-c2ccc(CN(C)C)cc2)ccc1=O` (racemic) [HYH-072 (racemate of I-2), reference compound], the IC50 with HCT-116 cells (Homo sapiens, HCT-116, 72 h) amounted to 110 ± 7 nM; in the assay on SKM-1 cells (Homo sapiens, SKM-1, 72 h) it was 90 ± 4 nM.
In the case of `C[C@H](c1ccc(C(=O)Nc2ccc(F)cc2N)cc1)n1nc(-c2ccc(CN(C)C)cc2)ccc1=O` [I-1 (R configuration), reference compound], the IC50 was 720 ± 196 nM on HDAC3; over 100 µM against HDAC10; 1550 ± 94 nM in the assay on HCT-116 cells (72 h); 375 ± 42.1 nM on HDAC1; 320 ± 48 nM at HDAC2; over 10 µM on HDAC6. Besides, the IC50 with SKM-1 cells (72 h) was 1060 ± 79 nM; against HDAC8, over 100 µM.
For the molecule `CC(c1ccc(C(=O)Nc2ccc(F)cc2N)cc1)n1nc(-c2ccc(CN(C)C)cc2)ccc1=O` (racemic) [HYH-073 (racemate of I-1), reference compound], the IC50 in the assay with HCT-116 cells (Homo sapiens, HCT-116, 72 h) was 380 ± 1 nM; with SKM-1 cells (Homo sapiens, SKM-1, 72 h) it was 230 ± 10 nM.
For the molecule `Nc1ccccc1NC(=O)c1ccc(CNC(=O)OCc2cccnc2)cc1` [MS-275, Entinostat, reference compound], the IC50 in the assay with HCT-116 cells (Homo sapiens, HCT-116, 72 h) is 1480 ± 8 nM; in the assay with SKM-1 cells (Homo sapiens, SKM-1, 72 h), 390 nM.
On to `COc1cccc(-c2ccc(=O)n([C@@H](C)c3ccc(C(=O)Nc4ccccc4N)cc3)n2)c1` [Compound I-4], for which the IC50 in the assay with HCT-116 cells (Homo sapiens, HCT-116, 72 h) was 230 ± 4 nM; at HDAC1 it was 35.2 ± 4.47 nM; at HDAC6 it was over 10 µM; in the assay on SKM-1 cells (Homo sapiens, SKM-1, 72 h), 160 ± 1 nM.
Turning to `COc1ccc(NC(=O)c2ccc([C@H](C)n3nc(-c4ccc(CN(C)C)cc4)ccc3=O)cc2)c(N)c1` [Compound I-8], the IC50 in the assay with HCT-116 cells (Homo sapiens, HCT-116, 72 h) was 870 ± 37 nM; against HDAC1, 126 ± 18.3 nM; against HDAC6, over 10 µM; in the assay with SKM-1 cells (Homo sapiens, SKM-1, 72 h) it was 490 ± 16 nM.
With `C[C@@H](c1ccc(C(=O)Nc2ccccc2N)cc1)n1nc(-c2cccc(Cl)c2)ccc1=O` [Compound I-3], the IC50 is 390 ± 6 nM in the assay with HCT-116 cells (Homo sapiens, HCT-116, 72 h); 52.4 ± 10.2 nM against HDAC1; over 10 µM on HDAC6; 270 ± 13 nM in the assay with SKM-1 cells (Homo sapiens, SKM-1, 72 h).
For `C[C@@H](c1ccc(C(=O)Nc2cccc(F)c2N)cc1)n1nc(-c2ccc(CN(C)C)cc2)ccc1=O` [Compound I-9], the IC50 was 500 ± 65 nM in the assay with HCT-116 cells (Homo sapiens, HCT-116, 72 h); 122 ± 11.1 nM on HDAC1; over 10 µM at HDAC6; 340 ± 13 nM with SKM-1 cells (Homo sapiens, SKM-1, 72 h).
Regarding `C[C@@H](c1ccc(C(=O)Nc2cc(F)c(F)cc2N)cc1)n1nc(-c2ccc(CN(C)C)cc2)ccc1=O` [Compound I-7], the IC50 was 310 ± 18 nM in the assay on HCT-116 cells (Homo sapiens, HCT-116, 72 h); 99.5 ± 11.1 nM against HDAC1; over 10 µM against HDAC6; 210 ± 5 nM in the assay with SKM-1 cells (Homo sapiens, SKM-1, 72 h).
Turning to `C[C@@H](c1ccc(C(=O)Nc2cc(F)ccc2N)cc1)n1nc(-c2ccc(CN(C)C)cc2)ccc1=O` [Compound I-12], the IC50 in the assay with HCT-116 cells (Homo sapiens, HCT-116, 72 h) was 140 ± 4 nM; on HDAC1, 31.3 ± 3.27 nM; against HDAC6, over 10 µM; with SKM-1 cells (Homo sapiens, SKM-1, 72 h), 100 nM.
For the molecule `Cc1ccc(N)c(NC(=O)c2ccc([C@H](C)n3nc(-c4ccc(CN(C)C)cc4)ccc3=O)cc2)c1` [Compound I-13], the IC50 with HCT-116 cells (72 h) was 220 ± 24 nM; at HDAC1, 44.8 ± 1.53 nM; against HDAC6, over 10 µM; in the assay with SKM-1 cells (72 h), 170 ± 2 nM.

One may read the IC50 as the concentration that gives 50% inhibition.
